# Where two headings read alike, the source gives them in different places.
# Experiments:
# [1] = biological target: T1, SARS-CoV-2 PLpro (nsp3 1564–1878) (Severe acute respiratory syndrome coronavirus 2, UniProt P0DTD1); assay: biochemical; set-up: FRET-quenched peptide (Pro3) cleavage by PLpro, 10 min pre-incubation, slope over 20 min, normalised to no-compound control; details: low concentration screen, read-out: % of control remaining
# [2] = biological target: T1, SARS-CoV-2 PLpro (nsp3 1564–1878); assay: biochemical; set-up: FRET-quenched peptide (Pro3) cleavage by PLpro, 10 min pre-incubation, slope over 20 min, normalised to no-compound control; details: high concentration screen, read-out: % of control remaining
compound,measurement,setting,value
CCCOc1ccc(/C=C2/SC(=O)NC2=O)cc1 [PIM1/2 Kinase Inhibitor VI],remaining activity at 1.25 µM,[1]; Well no.=2571,97.6%
same,remaining activity at 3.75 µM,[2]; Well no.=2571,97%
CN(C)CC(=O)Nc1ccc2[nH]c(=O)c3ccccc3c2c1 [PJ-34],remaining activity at 1.25 µM,[1]; Well no.=906,99.3%
same,remaining activity at 3.75 µM,[2]; Well no.=906,95.6%
Cc1nnc(NC(=O)c2nc(S(=O)(=O)Cc3ccc(F)cc3)ncc2Cl)s1 [PK11007],remaining activity at 1.25 µM,[1]; Well no.=6834,86.8%
same,remaining activity at 3.75 µM,[2]; Well no.=6834,87.8%
CCC(C)N(C)C(=O)c1cc2ccccc2c(-c2ccccc2Cl)n1 (stereo not drawn) [PK 11195],remaining activity at 1.25 µM,[1]; Well no.=185,99.9%
same,remaining activity at 3.75 µM,[2]; Well no.=185,98.2%
C[C@@H](Nc1ncnc2[nH]c(-c3ccc(O)cc3)cc12)c1ccccc1 [PKI-166],remaining activity at 1.25 µM,[1]; Well no.=6037,94.4%
same,remaining activity at 3.75 µM,[2]; Well no.=6037,78.3%
CCn1nnc2c(N3CCOCC3)nc(-c3ccc(NC(=O)Nc4ccc(C(=O)N5CCN(C)CC5)cc4)cc3)nc21 [PKI-402],remaining activity at 1.25 µM,[1]; Well no.=4699,105%
same,remaining activity at 3.75 µM,[2]; Well no.=4699,101%
"O=C1Nc2ccc(Cl)cc2/C1=C/c1cc(Cl)c(O)c(Cl)c1 [PKR Inhibitor, Negative Control]",remaining activity at 1.25 µM,[1]; Well no.=2513,96.5%
same,remaining activity at 3.75 µM,[2]; Well no.=2513,99%
O=C1Nc2ccc3ncsc3c2/C1=C/c1cnc[nH]1 [PKR Inhibitor],remaining activity at 1.25 µM,[1]; Well no.=2511,103%
same,remaining activity at 3.75 µM,[2]; Well no.=2511,103%
CCCS(=O)(=O)Nc1ccc(F)c(C(=O)c2c[nH]c3ncc(Cl)cc23)c1F [PLX4720],remaining activity at 1.25 µM,[1]; Well no.=2795,97.5%
same,remaining activity at 3.75 µM,[2]; Well no.=2795,99.9%
O=C(O)CCC(CP(=O)(O)O)C(=O)O (stereo not drawn) [PMPA tetrasodium],remaining activity at 1.25 µM,[1]; Well no.=1219,105%
same,remaining activity at 3.75 µM,[2]; Well no.=1219,103%
Nc1cc(Nc2ccc(S(N)(=O)=O)cc2)ncn1 [PNU112455A],remaining activity at 1.25 µM,[1]; Well no.=5446,100%
same,remaining activity at 3.75 µM,[2]; Well no.=5446,102%
COc1cc(OC)c(NC(=O)Nc2cc(C)on2)cc1Cl [PNU-120596],remaining activity at 1.25 µM,[1]; Well no.=4964,98.4%
same,remaining activity at 3.75 µM,[2]; Well no.=4964,92.3%
"CC(C)(C)n1nc(-c2ccc(Cl)cc2)c2c(N)ncnc21 [PP 2 - 3-(4-chlorophenyl) 1-(1,1-dimethylethyl)-1H-pyrazolo[3,4-d]pyrimidin-4-amine]",remaining activity at 1.25 µM,[1]; Well no.=2428,98.1%
same,remaining activity at 3.75 µM,[2]; Well no.=2428,101%
Nc1ncnc2c1c(-c1cnc3[nH]ccc3c1)nn2C1CCCC1 [PP-121],remaining activity at 1.25 µM,[1]; Well no.=4958,91%
same,remaining activity at 3.75 µM,[2]; Well no.=4958,92.2%
Cc1nc(N=Nc2ccc(S(=O)(=O)O)cc2S(=O)(=O)O)c(COP(=O)(O)O)c(C=O)c1O [PPADS],remaining activity at 1.25 µM,[1]; Well no.=1217,102%
same,remaining activity at 3.75 µM,[2]; Well no.=1217,101%
Cc1nc(N=Nc2cc(S(=O)(=O)O)c3cc([N+](=O)[O-])cc(S(=O)(=O)O)c3c2)c(COP(=O)(O)O)c(C=O)c1O [PPNDS tetrasodium],remaining activity at 1.25 µM,[1]; Well no.=1048,102%
same,remaining activity at 3.75 µM,[2]; Well no.=1048,103%
O=C(OCCN1CCOCC1)C1(c2ccccc2)CCCCC1 [PRE-084],remaining activity at 1.25 µM,[1]; Well no.=1000,98.1%
same,remaining activity at 3.75 µM,[2]; Well no.=1000,100%
COCC1(CO)C(=O)C2CCN1CC2 (stereo not drawn) [PRIMA-1Met],remaining activity at 1.25 µM,[1]; Well no.=6212,101%
same,remaining activity at 3.75 µM,[2]; Well no.=6212,99.5%

# Reference: PMC8286840, “Identifying SARS-CoV-2 antiviral compounds by screening for small molecule inhibitors of Nsp3 papain-like protease” (Biochemical Journal, 2021)
